Columns and labels:
Type in all cases: cell-based
[1] = molecular target: T1, OAT3 (Homo sapiens, UniProt Q8TCC7); assay: OAT3-mediated 3H-E3S uptake inhibition in transfected HEK293 cells; settings: for Fraction Inhibited / Triggers Drug Interaction Cutoff / Cmax,u/IC50 ratio: OAT3; for Fraction Inhibited: Cmax,u/(Cmax,u + IC50) (Eq. 2); for Triggers Drug Interaction Cutoff: Cmax,u/IC50 cutoff 0.1 (FDA); for Triggers Drug Interaction Cutoff / Cmax,u/IC50 ratio: 0.02 (EMA); for Cmax,u/IC50 ratio: cutoff 0.1 (FDA), ritlecitinib 200 mg; for IC50: renal OAT3, E3S as substrate (0.1 µM per table footnote), 3 min, HEK293, mean ± SD, n = 3
T1 construct: expressed in transfected cells; host or cells: HEK293
T1 sequence (Q8TCC7 1-542): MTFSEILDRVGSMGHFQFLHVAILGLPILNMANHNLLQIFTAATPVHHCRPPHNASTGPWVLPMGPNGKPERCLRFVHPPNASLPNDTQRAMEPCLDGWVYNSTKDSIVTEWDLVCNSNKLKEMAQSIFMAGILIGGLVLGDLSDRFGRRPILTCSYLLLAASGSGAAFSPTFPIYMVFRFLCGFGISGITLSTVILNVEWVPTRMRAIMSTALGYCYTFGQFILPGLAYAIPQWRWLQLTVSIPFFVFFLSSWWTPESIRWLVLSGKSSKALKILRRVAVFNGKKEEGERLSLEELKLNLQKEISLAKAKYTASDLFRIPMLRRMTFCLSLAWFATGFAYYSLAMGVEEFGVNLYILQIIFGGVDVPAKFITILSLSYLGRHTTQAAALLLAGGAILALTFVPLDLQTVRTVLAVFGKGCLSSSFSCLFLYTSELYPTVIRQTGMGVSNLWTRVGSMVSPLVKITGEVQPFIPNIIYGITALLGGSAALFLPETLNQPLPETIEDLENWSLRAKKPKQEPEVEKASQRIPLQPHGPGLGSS
Description: (§1) Sources of human embryonic kidney (HEK) 293 cells expressing individual transfected human solute carriers (SLC), test substrates, and cell culture reagents, as well as detailed cell culture methods, incubations, and sample processing, have been described previously. SLC included hepatic OATP1B1, OATP1B3, and renal OAT1 and OAT3. […] Likewise, the uptake of non-labeled rosuvastatin (Biosynth, San Diego, CA) at 0.3—0.5 µM was determined for OATP1B1 and OATP1B3 at 1—3 min, and CP-I (Frontier Specialty Chemicals, Logan, UT) at 0.1 µM was determined for OATP1B1 and OATP1B3 at 10 min [14].
(§2) In all cases, ritlecitinib (0.018 to 1000 µM) and metabolite M2 (0.018 to 300 µM) was tested over a wide range of final concentrations dissolved in dimethyl sulfoxide (the final concentration of dimethyl sulfoxide in the assays was 1% v/v). For each transporter, the IC50 was estimated using a four-parameter logistic equation (Eq. 1) using GraphPad Prism software (GraphPad Software Inc, La Jolla, CA).1 %UptakeActivity=Bottom+(Top-Bottom)/1+10^(LogIC50-inhib*HillSlope)
(§3) At the end of the uptake and inhibition experiment, cellular accumulation of ^3H-PAH and ^3H-E3S was determined using liquid scintillation counting as previously described. Rosuvastatin uptake was determined using a tandem high performance liquid chromatography (LC)-mass spectrometry (MS) assay.
Assumes no substrate-dependent shift in IC50 versus PDA.^1 Each OAT form was singularly transfected in human embryonic kidney 293 cells.

[2] = molecular target: T2, OATP1B1 (Homo sapiens, UniProt Q9Y6L6); assay: OATP1B1-mediated rosuvastatin uptake inhibition in transfected HEK293 cells; settings: for IC50: hepatic OATP1B1, RSV 0.3–0.5 µM as substrate, 1—3 min, HEK293, mean ± SD, n = 3; for R-value: 1 + (Imax,inlet,u/IC50), cutoff 1.1 (FDA), 1.04 (EMA)
T2 construct: expressed in transfected cells; host or cells: HEK293
T2 sequence (Q9Y6L6 1-691): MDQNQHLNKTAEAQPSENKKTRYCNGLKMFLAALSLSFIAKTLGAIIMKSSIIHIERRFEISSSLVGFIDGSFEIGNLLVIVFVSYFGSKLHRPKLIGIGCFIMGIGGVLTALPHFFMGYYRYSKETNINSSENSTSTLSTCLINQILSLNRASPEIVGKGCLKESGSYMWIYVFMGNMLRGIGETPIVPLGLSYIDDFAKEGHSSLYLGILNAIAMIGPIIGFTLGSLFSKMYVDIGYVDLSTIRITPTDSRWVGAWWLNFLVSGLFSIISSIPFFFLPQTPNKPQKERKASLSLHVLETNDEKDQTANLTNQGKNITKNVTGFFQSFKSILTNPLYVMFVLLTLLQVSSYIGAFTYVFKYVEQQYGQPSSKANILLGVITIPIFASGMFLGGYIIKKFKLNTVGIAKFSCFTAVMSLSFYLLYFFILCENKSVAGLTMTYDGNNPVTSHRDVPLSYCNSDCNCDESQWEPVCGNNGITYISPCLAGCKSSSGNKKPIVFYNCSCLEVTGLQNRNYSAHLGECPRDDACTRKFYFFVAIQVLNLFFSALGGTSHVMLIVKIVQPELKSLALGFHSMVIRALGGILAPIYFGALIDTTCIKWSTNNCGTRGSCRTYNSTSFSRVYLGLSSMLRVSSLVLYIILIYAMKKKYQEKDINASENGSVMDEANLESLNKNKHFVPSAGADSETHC
Description: as §1, §2, §3

[3] = molecular target: T3, OATP1B3 (Homo sapiens, UniProt Q9NPD5); assay: OATP1B3-mediated rosuvastatin uptake inhibition in transfected HEK293 cells; settings: for IC50: hepatic OATP1B3, RSV 0.3–0.5 µM as substrate, 1—3 min, HEK293, mean ± SD, n = 3
T3 construct: expressed in transfected cells; host or cells: HEK293
T3 sequence (Q9NPD5 1-702): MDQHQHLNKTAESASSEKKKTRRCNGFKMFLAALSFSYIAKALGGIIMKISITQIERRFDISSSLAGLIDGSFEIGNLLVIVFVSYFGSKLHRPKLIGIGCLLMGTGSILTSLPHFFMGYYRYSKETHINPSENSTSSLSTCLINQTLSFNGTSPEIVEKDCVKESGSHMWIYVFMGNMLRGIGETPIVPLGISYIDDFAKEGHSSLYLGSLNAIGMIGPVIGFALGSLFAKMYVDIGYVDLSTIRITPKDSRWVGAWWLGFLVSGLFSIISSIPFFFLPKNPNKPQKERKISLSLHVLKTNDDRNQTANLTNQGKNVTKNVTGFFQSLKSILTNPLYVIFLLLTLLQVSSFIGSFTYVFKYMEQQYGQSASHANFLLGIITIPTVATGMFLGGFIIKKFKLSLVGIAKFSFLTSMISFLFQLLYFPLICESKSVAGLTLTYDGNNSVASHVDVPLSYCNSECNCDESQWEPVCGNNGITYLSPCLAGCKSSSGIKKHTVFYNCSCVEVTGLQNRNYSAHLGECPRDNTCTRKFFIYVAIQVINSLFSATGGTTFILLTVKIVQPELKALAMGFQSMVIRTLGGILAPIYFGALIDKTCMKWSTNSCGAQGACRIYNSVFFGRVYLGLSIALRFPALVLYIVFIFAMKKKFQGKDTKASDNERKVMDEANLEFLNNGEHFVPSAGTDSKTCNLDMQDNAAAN
Description: as §1, §2, §3

Row | Structure (SMILES) | Fraction Inhibited [1] | Triggers Drug Interaction Cutoff [1] | Cmax,u/IC50 ratio [1] | IC50 [1] | Triggers Drug Interaction Cutoff ([2]; OATP1B1 (RSV)) | IC50 [2] | Triggers Drug Interaction Cutoff ([3]; OATP1B3 (RSV)) | IC50 [3] | further results
1 | C[C@H]1CC[C@@H](Nc2ncnc3[nH]ccc23)CN1C(=O)CCSC[C@H](N)C(=O)O [M2] | < 0.01 | No | < 0.01 | > 300 µM | Yes | 2 ± 0.03 µM | Yes | 8.4 ± 0.2 µM | % inhibition at the highest concentration tested ([1]; OAT3 (E3S), highest concentration 300 µM): 43%; Cmax,u/IC50 ratio ([2]; OATP1B1 (RSV), Cmax,u used for metabolite M2): 0.70; Fraction Inhibited ([2]; OATP1B1 (RSV), Cmax,u/(Cmax,u + IC50) for M2 (Eq. 3)): 0.4; Cmax,u/IC50 ratio ([3]; OATP1B3 (RSV), Cmax,u used for metabolite M2): 0.17; Fraction Inhibited ([3]; OATP1B3 (RSV), Cmax,u/(Cmax,u + IC50) for M2 (Eq. 3)): 0.1
2 | C=CC(=O)N1C[C@H](Nc2ncnc3[nH]ccc23)CC[C@@H]1C [Ritlecitinib, ritlecitinib] | 0.1 | Yes | 0.11 | 41 ± 3 µM | Yes | 312 ± 19 µM | No | 934 ± 59 µM | Fraction Inhibited ([1]; listed as ritlecitinib): ≤ 0.1; R-value ([2]; OATP1B1 (RSV)): 1.10; R-value ([2]; OATP1B1 (RSV), listed as ritlecitinib): 1.1; Fraction Inhibited ([2]; OATP1B1 (RSV), Imax,inlet,u/(Imax,inlet,u + IC50) (Eq. 1)): 0.09; Fraction Inhibited ([2]; OATP1B1 (RSV), Imax,inlet,u/(Imax,inlet,u + IC50) (Eq. 1), listed as ritlecitinib): ≤ 0.1; R-value ([3]; OATP1B3 (RSV), 1 + (Imax,inlet,u/IC50), cutoff 1.1 (FDA), 1.04 (EMA)): 1.03; Fraction Inhibited ([3]; OATP1B3 (RSV), Imax,inlet,u/(Imax,inlet,u + IC50) (Eq. 1)): 0.03; Fraction Inhibited ([3]; OATP1B3 (RSV), Imax,inlet,u/(Imax,inlet,u + IC50) (Eq. 1), listed as ritlecitinib): ≤ 0.1

Source: article PMC10733197, “Utilization of Rosuvastatin and Endogenous Biomarkers in Evaluating the Impact of Ritlecitinib on BCRP, OATP1B1, and OAT3 Transporter Activity” (Pharmaceutical Research, 2023)
